# Source: US20140155371A1, “MULTICOMPONENT CRYSTALLINE SYSTEM OF EZETIMIBE AND PROLINE” (BASF SE, priority 2011, published 2014)
# Key:
# [1] = Dynamic (water) vapor sorption (DVS); assay type: physicochemical
# Source text: Dynamic (water) vapor sorption (DVS) is a method well known in the art to monitor the adsorption of water on a solid material. Therefore, DVS is a suitable method to determine the hygroscopic nature of a pharmaceutical active ingredient.
# The crystalline form A described in WO 06/060808 (i.e. the free base) and the present composition (as obtained in example 3 further below) are subjected to a DVS experiment; results are shown in FIG. 4 and in the below Table 1. The crystalline composition is less prone to water uptake under humidity, and is easy to formulate compared to the crystalline anhydrous (“free base”) form of Ezetimibe (see Table 1).
# Dynamic (water) vapour sorption (DVS) is performed with a Surface Measurement Systems Ltd. DVS-1 water sorption analyzer or with SPS11-100n moisture sorption instrument from Projekt Meβtechnik, Ulm, Germany.
# Program: The relative humidity is kept at starting value of 0% for 5 hours, then continuously scanned from 0% to 60%, kept constant at 60% for 4 hours, and then scanned to 0% relative humidity, and kept constant for 4 hours. The scanning change rate of relative humidity is 5% per hour.
# [2] = system: LDL levels; conditions: Ezetimibe added to statin therapy; compared with 6% by doubling the dose of statins; cited from earlier work
structure (smiles),measurement,setting,value
O=C1[C@H](CC[C@H](O)c2ccc(F)cc2)[C@@H](c2ccc(O)cc2)N1c1ccc(F)cc1 [1-(4-Fluorophenyl)-3(R)-[3-(4-fluorophenyl)-3(S)-hydroxypropyl]-4(S)-(4-hydroxyphenyl)azetidin-2-one],Water vapor sorption: water content after 4 h at 60% r.h.,[1]; after 4 h at 60% r.h.,4.3%
same,Water vapor sorption: water content after 10 h at 50% r.h.,[1]; after 10 h at 50% r.h.,4.0%
same,water uptake,"[1]; at 60% relative humidity, FIG. 4",about 4.3%
same,relative humidity at which hydrate formation starts,"[1]; increasing ambient humidity, FIG. 4 dashed line",about 50%
"O=C1[C@H](CC[C@H](O)c2ccc(F)cc2)[C@@H](c2ccc(O)cc2)N1c1ccc(F)cc1 [Ezetimibe, 1-(4-Fluorophenyl)-3(R)-[3-(4-fluorophenyl)-3(S)-hydroxypropyl]-4(S)-(4-hydroxyphenyl)azetidin-2-one]",reduction in LDL levels,[2],15%
O=C1[C@H](CC[C@H](O)c2ccc(F)cc2)[C@@H](c2ccc(O)cc2)N1c1ccc(F)cc1 [hydrate form],relative humidity below which the hydrate begins to lose water,"[1]; decreasing humidity, FIG. 4",about 25%
